# Residues, ends and D or L forms follow the SMILES beside them.
# Legend:
# E. faecalis ATCC 29212 = format: cell-based, Enterococcus faecalis; details: ATCC 29212, 16 h
# Protocol: (§1) The antimicrobial activities of the peptides were investigated against the following bacteria: E. faecalis ATCC 29212, S. epidermidis ATCC 12228, S. aureus ATCC 29213, E. coli ATCC 25922, S. typhimurium […] and S. Pullorum […]. The MICs of the peptides were determined using a modified standard microtiter dilution method as described previously[29],[38]. Briefly, the microbial strains were cultured in MHB at 37 °C to reach mid-log phase and then diluted to 0.5-1×10^6 CFU/ml. 50 μL volumes of bacteria suspension were incubated in sterile 96-well plates with 50 μl of 2-fold serially diluted peptides at different concentrations (0.25-128 μM). Cultures with or without bacterial cells was employed as positive and negative controls, respectively. […] Each measurement was reproduced at least four times using three replicates.
# S. aureus ATCC 29213 = format: cell-based, Staphylococcus aureus; details: ATCC 29213, 16 h
# Protocol: as §1
# [1] = system: S. epidermidis ATCC 12228; format: cell-based, Staphylococcus epidermidis; details: ATCC 12228, 16 h
# Protocol: as §1
# S. typhimurium C7731 = format: cell-based, Salmonella typhimurium; details: C7731, 16 h
# Protocol: as §1
# S. Pullorum C7913 = format: cell-based, Salmonella Pullorum; details: C7913, 16 h
# Protocol: as §1
# E. coli ATCC 25922 = format: cell-based, Escherichia coli; details: ATCC 25922, 16 h
# Protocol: as §1
# [2] = system: panel of microbes (Gram-negative and Gram-positive bacteria); format: cell-based; details: 16 h
# Protocol: as §1
MIC (μM) Gram-positive E. faecalis 25922 (E. faecalis ATCC 29212) [µM],MIC (μM) Gram-positive S. aureus 1005 (S. aureus ATCC 29213) [µM],MIC (μM) Gram-positive S. epidermidis 7913 [1] [µM],MIC (μM) Gram-negative S. typhimurium 29213 (S. typhimurium C7731) [µM],MIC (μM) Gram-negative S. Pullorum 43300 (S. Pullorum C7913) [µM],MIC (μM) Gram-negative E. coli 12228 (E. coli ATCC 25922) [µM],MICs against the panel of microbes (range) [2] [µM],Compound
16,4,8,8,4,2,2 to 16,NCCCC[C@H](NC(=O)CNC(=O)[C@H](CC(N)=O)NC(=O)[C@H](CCCCN)NC(=O)[C@H](Cc1c[nH]c2ccccc12)NC(=O)[C@H](CCCCN)NC(=O)[C@H](Cc1c[nH]c2ccccc12)NC(=O)[C@H](CCCCN)NC(=O)[C@@H](N)Cc1c[nH]c2ccccc12)C(=O)N[C@@H](Cc1c[nH]c2ccccc12)C(=O)N[C@@H](CCCCN)C(=O)N[C@@H](Cc1c[nH]c2ccccc12)C(=O)N[C@@H](CCCCN)C(=O)N[C@@H](Cc1c[nH]c2ccccc12)C(=O)O [C6] (H-WKWKWKNGKWKWKW-OH)
64,32,32,32,8,2,,NCCCC[C@H](NC(=O)CNC(=O)[C@H](CC(N)=O)NC(=O)[C@H](CCC(=O)O)NC(=O)[C@H](Cc1c[nH]c2ccccc12)NC(=O)[C@H](CCCCN)NC(=O)[C@H](Cc1c[nH]c2ccccc12)NC(=O)[C@H](CCCCN)NC(=O)[C@@H](N)Cc1c[nH]c2ccccc12)C(=O)N[C@@H](Cc1c[nH]c2ccccc12)C(=O)N[C@@H](CCCCN)C(=O)N[C@@H](Cc1c[nH]c2ccccc12)C(=O)N[C@@H](CCCCN)C(=O)N[C@@H](Cc1c[nH]c2ccccc12)C(=O)O [C4] (H-WKWKWENGKWKWKW-OH)
>128,>128,>128,>128,>128,32,,CC[C@H](C)[C@H](NC(=O)[C@H](Cc1ccccc1)NC(=O)[C@H](CS)NC(=O)[C@@H](NC(=O)[C@H](CO)NC(=O)[C@@H](N)Cc1ccc(O)cc1)[C@@H](C)O)C(=O)N[C@@H](CCSC)C(=O)NCC(=O)NCC(=O)NCC(=O)N[C@@H](Cc1c[nH]c2ccccc12)C(=O)N[C@@H](CCCCN)C(=O)N[C@@H](Cc1c[nH]c2ccccc12)C(=O)N[C@@H](CCCCN)C(=O)N[C@@H](Cc1c[nH]c2ccccc12)C(=O)N[C@@H](CCC(=O)O)C(=O)N[C@@H](CC(N)=O)C(=O)NCC(=O)N[C@@H](CCCCN)C(=O)N[C@@H](Cc1c[nH]c2ccccc12)C(=O)N[C@@H](CCCCN)C(=O)N[C@@H](Cc1c[nH]c2ccccc12)C(=O)N[C@@H](CCCCN)C(=O)N[C@@H](Cc1c[nH]c2ccccc12)C(=O)O [random-C4] (H-YSTCFIMGGGWKWKWENGKWKWKW-OH)
>128,>128,>128,>128,>128,>128,,"CC(C)C[C@H](NC(=O)[C@@H](NC(=O)[C@@H](NC(=O)[C@@H](N)CC(C)C)C(C)C)[C@@H](C)O)C(=O)N[C@H](C(=O)N[C@@H](Cc1ccccc1)C(=O)N[C@H](C(=O)O)C(C)C)C(C)C [cCF10, reference compound] (H-LVTLVFV-OH)"
16,8,32,>128,8,2,,CC(C)C[C@H](NC(=O)CNC(=O)CNC(=O)CNC(=O)[C@H](Cc1c[nH]c2ccccc12)NC(=O)[C@H](CCCCN)NC(=O)[C@H](Cc1c[nH]c2ccccc12)NC(=O)[C@H](CCCCN)NC(=O)[C@H](Cc1c[nH]c2ccccc12)NC(=O)[C@H](CCCCN)NC(=O)CNC(=O)[C@H](CC(N)=O)NC(=O)[C@H](CCCCN)NC(=O)[C@H](Cc1c[nH]c2ccccc12)NC(=O)[C@H](CCCCN)NC(=O)[C@H](Cc1c[nH]c2ccccc12)NC(=O)[C@H](CCCCN)NC(=O)[C@@H](N)Cc1c[nH]c2ccccc12)C(=O)N[C@H](C(=O)N[C@H](C(=O)N[C@@H](CC(C)C)C(=O)N[C@H](C(=O)N[C@@H](Cc1ccccc1)C(=O)N[C@H](C(=O)O)C(C)C)C(C)C)[C@@H](C)O)C(C)C [C6-cCF10] (H-WKWKWKNGKWKWKWGGGLVTLVFV-OH)
8,>128,>128,>128,>128,64,,CC(C)C[C@H](NC(=O)[C@@H](NC(=O)[C@@H](NC(=O)[C@@H](N)CC(C)C)C(C)C)[C@@H](C)O)C(=O)N[C@H](C(=O)N[C@@H](Cc1ccccc1)C(=O)N[C@H](C(=O)NCC(=O)NCC(=O)NCC(=O)N[C@@H](Cc1c[nH]c2ccccc12)C(=O)N[C@@H](CCCCN)C(=O)N[C@@H](Cc1c[nH]c2ccccc12)C(=O)N[C@@H](CCCCN)C(=O)N[C@@H](Cc1c[nH]c2ccccc12)C(=O)N[C@@H](CCC(=O)O)C(=O)N[C@@H](CC(N)=O)C(=O)NCC(=O)N[C@@H](CCCCN)C(=O)N[C@@H](Cc1c[nH]c2ccccc12)C(=O)N[C@@H](CCCCN)C(=O)N[C@@H](Cc1c[nH]c2ccccc12)C(=O)N[C@@H](CCCCN)C(=O)N[C@@H](Cc1c[nH]c2ccccc12)C(=O)O)C(C)C)C(C)C [cCF10-C4] (H-LVTLVFVGGGWKWKWENGKWKWKW-OH)
>128,>128,>128,64,16,32,,NCCCC[C@H](NC(=O)CNC(=O)[C@H](CC(N)=O)NC(=O)[C@H](CCC(=O)O)NC(=O)[C@H](Cc1c[nH]c2ccccc12)NC(=O)[C@H](CCCCN)NC(=O)[C@H](Cc1c[nH]c2ccccc12)NC(=O)[C@H](CCCCN)NC(=O)[C@@H](N)Cc1c[nH]c2ccccc12)C(=O)N[C@@H](Cc1c[nH]c2ccccc12)C(=O)N[C@@H](CCCCN)C(=O)N[C@@H](Cc1c[nH]c2ccccc12)C(=O)N[C@@H](CCC(N)=O)C(=O)N[C@@H](Cc1c[nH]c2ccccc12)C(=O)O [C3] (H-WKWKWENGKWKWQW-OH)
4,8,16,8,8,2,,"CC(C)C[C@H](NC(=O)[C@H](CCCNC(=N)N)NC(=O)CNC(=O)CNC(=O)[C@@H](N)CCCNC(=N)N)C(=O)N[C@H]1CSSC[C@@H](C(=O)N[C@H](C(=O)NCC(=O)N[C@@H](CCCNC(=N)N)C(N)=O)C(C)C)NC(=O)[C@H](C(C)C)NC(=O)[C@@H]2CSSC[C@H](NC(=O)[C@H](Cc3ccc(O)cc3)NC1=O)C(=O)N[C@@H](CCCNC(=N)N)C(=O)N[C@@H](CCCNC(=N)N)C(=O)N[C@@H](CCCNC(=N)N)C(=O)N[C@@H](Cc1ccccc1)C(=O)N2 [PG-1, reference compound]"
4,32,32,>128,16,4,,CC(C)C[C@H](NC(=O)[C@@H](NC(=O)[C@@H](NC(=O)[C@@H](N)CC(C)C)C(C)C)[C@@H](C)O)C(=O)N[C@H](C(=O)N[C@@H](Cc1ccccc1)C(=O)N[C@H](C(=O)NCC(=O)NCC(=O)NCC(=O)N[C@@H](Cc1c[nH]c2ccccc12)C(=O)N[C@@H](CCCCN)C(=O)N[C@@H](Cc1c[nH]c2ccccc12)C(=O)N[C@@H](CCCCN)C(=O)N[C@@H](Cc1c[nH]c2ccccc12)C(=O)N[C@@H](CCCCN)C(=O)N[C@@H](CC(N)=O)C(=O)NCC(=O)N[C@@H](CCCCN)C(=O)N[C@@H](Cc1c[nH]c2ccccc12)C(=O)N[C@@H](CCCCN)C(=O)N[C@@H](Cc1c[nH]c2ccccc12)C(=O)N[C@@H](CCCCN)C(=O)N[C@@H](Cc1c[nH]c2ccccc12)C(=O)O)C(C)C)C(C)C [cCF10-C6] (H-LVTLVFVGGGWKWKWKNGKWKWKW-OH)
>128,>128,>128,>128,>128,>128,,CC(C)C[C@H](NC(=O)[C@@H](NC(=O)[C@@H](NC(=O)[C@@H](N)CC(C)C)C(C)C)[C@@H](C)O)C(=O)N[C@H](C(=O)N[C@@H](Cc1ccccc1)C(=O)N[C@H](C(=O)NCC(=O)NCC(=O)NCC(=O)N[C@@H](Cc1c[nH]c2ccccc12)C(=O)N[C@@H](CCCCN)C(=O)N[C@@H](Cc1c[nH]c2ccccc12)C(=O)N[C@@H](CCCCN)C(=O)N[C@@H](Cc1c[nH]c2ccccc12)C(=O)N[C@@H](CCC(=O)O)C(=O)N[C@@H](CC(N)=O)C(=O)NCC(=O)N[C@@H](CCCCN)C(=O)N[C@@H](Cc1c[nH]c2ccccc12)C(=O)N[C@@H](CCCCN)C(=O)N[C@@H](Cc1c[nH]c2ccccc12)C(=O)N[C@@H](CCC(N)=O)C(=O)N[C@@H](Cc1c[nH]c2ccccc12)C(=O)O)C(C)C)C(C)C [cCF10-C3] (H-LVTLVFVGGGWKWKWENGKWKWQW-OH)
